Results: patent US8575091B1, “Amylin analogues and pharmaceutical compositions thereof” (Novo Nordisk A/S, priority 2012, dated 2013)
Numbered stars: 1 amine (or outer) side, 2 acyl side, 3 side chain; on linkers, the order of the positions; unused ones are H or OH. Bridge positions count the residues as written; N and C are the ends. Side chains are listed from the residue outwards. Peptide text beside a SMILES is read from it. * marks the point of attachment. C20 diacid = O=C(O)CCCCCCCCCCCCCCCCCCC(=O)*; γGlu = O=C(O)[C@H](CCC(=O)[*:2])N[*:1]

Target: T1, human amylin receptor (amylin 3(a) receptor: human calcitonin receptor + RAMP-3) (Homo sapiens, UniProt O60896+P30988)
T1 construct: expressed in transfected cells
T1 sequence (P30988 25-474): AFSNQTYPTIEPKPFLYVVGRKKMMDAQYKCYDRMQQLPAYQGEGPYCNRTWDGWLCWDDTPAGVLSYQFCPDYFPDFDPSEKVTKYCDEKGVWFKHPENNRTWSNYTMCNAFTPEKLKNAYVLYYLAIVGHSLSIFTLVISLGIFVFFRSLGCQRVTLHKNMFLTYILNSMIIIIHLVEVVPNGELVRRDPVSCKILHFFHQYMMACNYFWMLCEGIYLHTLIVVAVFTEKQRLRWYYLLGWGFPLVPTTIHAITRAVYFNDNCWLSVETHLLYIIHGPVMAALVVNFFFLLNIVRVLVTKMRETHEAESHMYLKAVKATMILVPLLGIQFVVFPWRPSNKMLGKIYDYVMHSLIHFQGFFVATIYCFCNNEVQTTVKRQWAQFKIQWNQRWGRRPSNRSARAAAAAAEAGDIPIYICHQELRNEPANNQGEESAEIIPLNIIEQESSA
T1 sequence (O60896 24-148 partner): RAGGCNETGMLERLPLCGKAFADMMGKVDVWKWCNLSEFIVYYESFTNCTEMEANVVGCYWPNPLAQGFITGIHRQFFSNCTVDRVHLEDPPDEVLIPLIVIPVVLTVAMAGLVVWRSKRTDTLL
Assay: Assay (II)a functional assay, human amylin receptor (CRE luciferase, BHK cells)
Format: cell-based

[1] = Table 6, human functional selectivity (hCTR EC50 / hAmylin-R EC50)
[2] = Table 6a, human functional selectivity (hCTR EC50 / hAmylin-R EC50), at least 5
[3] = Table 6j, hCTR funct. EC50 / hAmylin-R funct. EC50
[4] = Table 6k, hCTR funct. EC50 / hAmylin-R funct. EC50

Row | Structure (SMILES) | Ratio hCT/hAmylin funct. [1] | Ratio hCT/hAmylin funct. [2] | Ratio hCT/hAmylin funct. (hCTR funct. EC50 divided by hAmylin-R funct. EC50) | Ratio hCT/hAmylin funct. (Table 6i, hCTR funct. EC50 / hAmylin-R funct. EC50) | Ratio hCT/hAmylin funct. [3] | Ratio hCT/hAmylin funct. [4]
1 | CC(C)C[C@H](NC(=O)[C@H](CCCNC(=N)N)NC(=O)[C@H](CCC(N)=O)NC(=O)[C@@H](NC(=O)[C@H](C)NC(=O)[C@@H]1CSSC[C@H](NC(=O)[C@@H](N)CCCCNC(=O)CC[C@H](NC(=O)CC[C@H](NC(=O)CCCCCCCCCCCCCCCCCCC(=O)O)C(=O)O)C(=O)O)C(=O)N[C@@H](CC(N)=O)C(=O)N[C@@H]([C@@H](C)O)C(=O)N[C@@H](C)C(=O)N[C@@H]([C@@H](C)O)C(=O)N1)[C@@H](C)O)C(=O)N[C@@H](C)C(=O)N[C@@H](CC(=O)O)C(=O)N[C@@H](Cc1ccccc1)C(=O)N[C@@H](CC(C)C)C(=O)N[C@@H](CCCNC(=N)N)C(=O)N[C@@H](Cc1c[nH]cn1)C(=O)N[C@@H](CO)C(=O)N[C@@H](CO)C(=O)N1CCC[C@H]1C(=O)N[C@@H](CC(N)=O)C(=O)N[C@@H](Cc1ccccc1)C(=O)NCC(=O)N[C@@H](C)C(=O)N1CCC[C@H]1C(=O)N[C@@H](CC(C)C)C(=O)N[C@@H](CO)C(=O)N[C@@H](CO)C(=O)N[C@H](C(=O)N[C@@H](CC(N)=O)C(=O)N[C@H](C(=O)NCC(=O)N[C@@H](CO)C(=O)N[C@@H](CC(=O)O)C(=O)N[C@H](C(=O)N[C@@H](Cc1ccc(O)cc1)C(N)=O)[C@@H](C)O)C(C)C)[C@@H](C)O [Example 1] (H-K([γGlu-γGlu-C20 diacid])CNTATCATQRLADFLRHSSPNFGAPLSSTNVGSDTY-NH2; disulfide 2-7; N-terminus assumed) | 12.0 | 12.0 | 12.0 | – | – | –
2 | CC[C@H](C)[C@H](NC(=O)[C@H](C)NC(=O)CNC(=O)[C@H](Cc1ccccc1)NC(=O)[C@H](CC(N)=O)NC(=O)[C@@H]1CCCN1C(=O)[C@H](CO)NC(=O)[C@H](CO)NC(=O)[C@H](Cc1c[nH]cn1)NC(=O)[C@H](CCCNC(=N)N)NC(=O)[C@H](CC(C)C)NC(=O)[C@H](Cc1ccccc1)NC(=O)[C@H](CCC(=O)O)NC(=O)[C@H](C)NC(=O)[C@H](CC(C)C)NC(=O)[C@H](CCCNC(=N)N)NC(=O)[C@H](CCC(N)=O)NC(=O)[C@@H](NC(=O)[C@H](C)NC(=O)[C@@H]1CSSC[C@H](NC(=O)[C@H](CCCCN)NC(=O)CC[C@H](NC(=O)CCCCCCCCCCCCCCCCCCC(=O)O)C(=O)O)C(=O)N[C@@H](CC(N)=O)C(=O)N[C@@H]([C@@H](C)O)C(=O)N[C@@H](C)C(=O)N[C@@H]([C@@H](C)O)C(=O)N1)[C@@H](C)O)C(=O)N1CCC[C@H]1C(=O)N[C@@H](CO)C(=O)N[C@@H](CO)C(=O)N[C@H](C(=O)N[C@@H](CC(N)=O)C(=O)N[C@H](C(=O)NCC(=O)N[C@@H](Cc1c[nH]cn1)C(=O)N[C@@H](CC(N)=O)C(=O)N[C@H](C(=O)N[C@@H](Cc1ccc(O)cc1)C(N)=O)[C@@H](C)O)C(C)C)[C@@H](C)O [Example 17] ({C20 diacid-γGlu}-KCNTATCATQRLAEFLRHSSPNFGAIPSSTNVGHNTY-NH2; disulfide 2-7) | 8.8 | 8.8 | – | 8.8 | 8.8 | 8.8
3 | CC[C@H](C)[C@H](NC(=O)[C@H](C)NC(=O)CNC(=O)[C@H](Cc1ccccc1)NC(=O)[C@H](CC(N)=O)NC(=O)[C@@H]1CCCN1C(=O)[C@H](CO)NC(=O)[C@H](CO)NC(=O)[C@H](Cc1c[nH]cn1)NC(=O)[C@H](CCCNC(=N)N)NC(=O)[C@H](CC(C)C)NC(=O)[C@H](Cc1ccccc1)NC(=O)[C@H](CC(N)=O)NC(=O)[C@H](C)NC(=O)[C@H](CC(C)C)NC(=O)[C@H](CCCNC(=N)N)NC(=O)[C@H](CCC(N)=O)NC(=O)[C@@H](NC(=O)[C@H](C)NC(=O)[C@@H]1CSSC[C@H](NC(=O)[C@H](CCCCN)NC(=O)CC[C@H](NC(=O)CCCCCCCCCCCCCCCCCCC(=O)O)C(=O)O)C(=O)N[C@@H](CC(N)=O)C(=O)N[C@@H]([C@@H](C)O)C(=O)N[C@@H](C)C(=O)N[C@@H]([C@@H](C)O)C(=O)N1)[C@@H](C)O)C(=O)N1CCC[C@H]1C(=O)N[C@@H](CO)C(=O)N[C@@H](CO)C(=O)N[C@H](C(=O)N1CCC[C@H]1C(=O)N[C@H](C(=O)NCC(=O)N[C@@H](CO)C(=O)N[C@@H](CCC(=O)O)C(=O)N[C@H](C(=O)N[C@@H](Cc1ccc(O)cc1)C(N)=O)[C@@H](C)O)C(C)C)[C@@H](C)O [Example 28] ({C20 diacid-γGlu}-KCNTATCATQRLANFLRHSSPNFGAIPSSTPVGSETY-NH2; disulfide 2-7) | 9.2 | 9.2 | – | – | 9.2 | 9.2
4 | CC[C@H](C)[C@H](NC(=O)[C@H](C)NC(=O)CNC(=O)[C@H](Cc1ccccc1)NC(=O)[C@H](CC(N)=O)NC(=O)[C@@H]1CCCN1C(=O)[C@H](CO)NC(=O)[C@H](CO)NC(=O)[C@H](Cc1c[nH]cn1)NC(=O)[C@H](CCCNC(=N)N)NC(=O)[C@H](CC(C)C)NC(=O)[C@H](Cc1ccccc1)NC(=O)[C@H](CC(N)=O)NC(=O)[C@H](C)NC(=O)[C@H](CC(C)C)NC(=O)[C@H](CCCNC(=N)N)NC(=O)[C@H](CCC(N)=O)NC(=O)[C@@H](NC(=O)[C@H](C)NC(=O)[C@@H]1CSSC[C@H](NC(=O)[C@@H](N)CCCCNC(=O)CC[C@H](NC(=O)CCCCCCCCCCCCCCCCCCC(=O)O)C(=O)O)C(=O)N[C@@H](CC(N)=O)C(=O)N[C@@H]([C@@H](C)O)C(=O)N[C@@H](C)C(=O)N[C@@H]([C@@H](C)O)C(=O)N1)[C@@H](C)O)C(=O)N1CCC[C@H]1C(=O)N[C@@H](CO)C(=O)N[C@@H](CO)C(=O)N[C@H](C(=O)N[C@@H](CC(N)=O)C(=O)N[C@H](C(=O)NCC(=O)N[C@@H](CO)C(=O)N[C@@H](CCCCN)C(=O)N[C@H](C(=O)N[C@@H](Cc1ccc(O)cc1)C(N)=O)[C@@H](C)O)C(C)C)[C@@H](C)O [Example 35] (H-K([γGlu-C20 diacid])CNTATCATQRLANFLRHSSPNFGAIPSSTNVGSKTY-NH2; disulfide 2-7; N-terminus assumed) | 15.0 | 15.0 | – | – | 15.0 | 15.0
5 | CC[C@H](C)[C@H](NC(=O)[C@H](C)NC(=O)CNC(=O)[C@H](Cc1ccccc1)NC(=O)[C@H](CC(N)=O)NC(=O)[C@@H]1CCCN1C(=O)[C@H](CO)NC(=O)[C@H](CO)NC(=O)[C@H](Cc1c[nH]cn1)NC(=O)[C@H](CCCNC(=N)N)NC(=O)[C@H](CC(C)C)NC(=O)[C@H](Cc1ccccc1)NC(=O)[C@H](CC(N)=O)NC(=O)[C@H](C)NC(=O)[C@H](CC(C)C)NC(=O)[C@H](CCCNC(=N)N)NC(=O)[C@H](CCC(N)=O)NC(=O)[C@@H](NC(=O)[C@H](C)NC(=O)[C@@H]1CSSC[C@H](NC(=O)[C@@H](N)CCCCNC(=O)COCCOCCNC(=O)CCCCCCCCCCCCCCCCCCC(=O)O)C(=O)N[C@@H](CC(N)=O)C(=O)N[C@@H]([C@@H](C)O)C(=O)N[C@@H](C)C(=O)N[C@@H]([C@@H](C)O)C(=O)N1)[C@@H](C)O)C(=O)N1CCC[C@H]1C(=O)N[C@@H](CO)C(=O)N[C@@H](CO)C(=O)N[C@H](C(=O)N[C@@H](CC(N)=O)C(=O)N[C@H](C(=O)NCC(=O)N[C@@H](CO)C(=O)N[C@@H](CC(N)=O)C(=O)N[C@H](C(=O)N[C@@H](Cc1ccc(O)cc1)C(N)=O)[C@@H](C)O)C(C)C)[C@@H](C)O [Example 43] | 6.5 | 6.5 | – | – | 6.5 | 6.5
6 | CC[C@H](C)[C@H](NC(=O)[C@H](C)NC(=O)CNC(=O)[C@H](Cc1ccccc1)NC(=O)[C@H](CC(N)=O)NC(=O)[C@@H]1CCCN1C(=O)[C@H](CO)NC(=O)[C@H](CO)NC(=O)[C@H](Cc1c[nH]cn1)NC(=O)[C@H](CCCNC(=N)N)NC(=O)[C@H](CC(C)C)NC(=O)[C@H](Cc1ccccc1)NC(=O)[C@H](CC(N)=O)NC(=O)[C@H](C)NC(=O)[C@H](CC(C)C)NC(=O)[C@H](CCCNC(=N)N)NC(=O)[C@H](CCC(N)=O)NC(=O)[C@@H](NC(=O)[C@H](C)NC(=O)[C@@H]1CSSC[C@H](NC(=O)[C@@H](N)CCCCNC(=O)CC[C@H](NC(=O)CCCCCCCCCCCCCCCCCCC(=O)O)C(=O)O)C(=O)N[C@@H](CC(N)=O)C(=O)N[C@@H]([C@@H](C)O)C(=O)N[C@@H](C)C(=O)N[C@@H]([C@@H](C)O)C(=O)N1)[C@@H](C)O)C(=O)N1CCC[C@H]1C(=O)N[C@@H](CO)C(=O)N[C@@H](CO)C(=O)N[C@H](C(=O)N[C@@H](CC(N)=O)C(=O)N[C@H](C(=O)NCC(=O)N[C@@H](CO)C(=O)N[C@@H](CC(N)=O)C(=O)N[C@H](C(=O)N[C@@H](Cc1ccc(O)cc1)C(N)=O)[C@@H](C)O)C(C)C)[C@@H](C)O [Example 48] | 17.0 | 17.0 | – | – | 17.0 | 17.0
